# From publication PMC6856805, “Environmental Risk Assessment for the Active Pharmaceutical Ingredient Mycophenolic Acid in European Surface Waters” (Environmental Toxicology and Chemistry, 2019)
# Like-named read-outs stand apart in the source and are kept apart here.
# Experiments:
# [1] = n-octanol/water distribution coefficient (log DOW), shake-flask method; assay type: physicochemical
# Excerpt: (§1) Syntex derived many basic physicochemical properties for both MPM and MPA in the early 1990s. The results for MPA are mostly given in the present study.
# [2] = Screening hydrolysis test; assay type: physicochemical; details: 5 d
# Description: as §1
# A screening hydolysis test was performed by Syntex with MPA in 0.1 M buffered solutions in triplicate at pH 5, 7 and 9 over 5 days at 50 °C, with HPLC determination of MPA at the start and end of the exposure, 'closely following US Food and Drug Administration 1987 Environmental Assessment Technical Assistance Handbook recommendations' (Young & Licato 1994b).
# [3] = Photodegradation in buffered aqueous solutions under natural sunlight; assay type: physicochemical
# Description: In contrast, Franquet‐Griell et al. (2017a) reported MPA k photo values of 0.0284 min^–1 for UV‐C irradiation and 0.004 min^–1 in a Solar Box artificial sunlight reactor. […] Giebułtowicz and Nałęcz‐Jawecki (2016) presented a UV‐visual light spectrum of MPA in their Supporting Information with a λmax at 215 nm and 2 sequentially lower peaks at 248 and 297 nm, confirming UV‐C photosensitivity.
# The photodegradation of MPA in buffered aqueous solutions at pH 5, 7 and 9 under natural sunlight was determined by Syntex, 'closely following the US FDA guideline' (Nicholson 1994)). MPA was used in solutions of 3.12×10^–5 M (= 10 mg/L); the pH 5 solution was buffered with 0.1 M sodium acetate, the pH 7 solution with 0.1 M monobasic sodium phosphate and the pH 9 solution with 0.1 M sodium borate buffer. As actinometers (reference photodegradants) p-nitroanisole at 1.00×10^–5 M was used, with 4.96×10^–3 M pyridine for pH 5, with 6.20×10^–3 M pyridine for pH 7 and with 9.93×10^–3 M pyridine for pH 9. In each of the seasonal studies, hermetically closed quartz tubes with either one of the MPA solutions or the corresponding actinometer solutions were exposed to natural sunlight in triplicate. Single control tubes containing either MPA solution or actinometer solution, both at different pHs, were wrapped in aluminium foil and covered in black plastic and exposed in parallel. The tubes were set up in Palo Alto, Ca, USA at 37° 25' N, in parallel on a board painted black, which was exposed on a stand pointing due […] at an angle of 30°. Data for the four seasonal experiments, with date, time of initiation and end, sampling intervals, weather, cloud cover and temperature, are given in the report. At each of several equivalent timepoints, one set of tubes was removed from sunlight, analysed by HPLC and compared with the respective dark control. The substance loss of p-nitroanisole, with known quantum yield, in the […] served to calibrate the loss of MPA in the test tubes and determine the photolytic rate constants kphoto and half-lives for MPA at different pH levels and insolations over the seasons.
# [4] = Risk quotient PEC/PNEC or MEC/PNEC for STPs and surface freshwaters
# Description: The potential risk for STPs and surface freshwater organisms was characterized by dividing the various PECs and MECs by the respective PNECs for MPA (Committee for Medicinal Products for Human Use 2015). Further risk assessments were performed for antibiotic resistance risk due to the described antibiotic activity of MPA, risk for environmental top predators, and also risk for humans through so‐called secondary poisoning from uptake of water or fish.
# daphnid = details: in vivo
# [5] = set-up: method as in Franquet‐Griell et al. (2017a); details: ref Franquet‐Griell et al. (2017a); cited from earlier work
# Artemia salina = tested on: Artemia salina; set-up: method as in earlier work; details: non‐GLP; ref Ďuračková et al. 1977; cited from earlier work
# [6] = tested on: Wistar rat embryos, murine embryonic stem cells, and mouse fibroblasts; set-up: method as in Eckardt and Stahlmann 2010; details: mammalian systems; ref Eckardt and Stahlmann 2010; cited from earlier work
compound,measurement,setting,value
"COc1c(C)c2c(c(O)c1CC=C(C)CCC(=O)O)C(=O)OC2 [MPA, 6‐(1,3‐dihydro‐4‐hydroxy‐6‐methoxy‐7‐methyl‐3‐oxo‐5‐isobenzofuranyl)‐4‐methyl‐4‐hexenoic acid]",logD,"[1]; pH 5, pH 5, read-out: Log D OW",2.28
same,logD,"[1]; pH 5, pH 5 to 9, read-out: log D OW values",≤ 2.28
same,logD,"[1]; pH 7, pH 7, read-out: Log D OW",0.48
same,logD,"[1]; pH 9, pH 9, read-out: Log D OW",≤ -1.54
same,Screening hydrolysis,"[2]; pH 5, 50 °C",46.15 % Substance loss
same,Screening hydrolysis,"[2]; pH 7, 50 °C",29.03 % Substance loss
same,Screening hydrolysis,"[2]; pH 9, 50 °C",36.67 % Substance loss
same,k photo,"[3]; pH 5, summer",0.0059 min^–1
same,k photo,"[3]; pH 5, winter",0.0017 min^–1
same,k photo,"[3]; pH 7, summer",0.018 min^–1
same,k photo,"[3]; pH 7, winter",0.0049 min^–1
same,k photo,"[3]; pH 9, summer",0.031 min^–1
same,k photo,"[3]; pH 9, winter",0.0087 min^–1
same,highest PEC‐based risk quotient for STPs,[4]; PECSTP 8.83 µg/L / PNECSTP,0.00128
same,highest MEC‐based risk quotient for STPs,[4]; STP effluent MEC 4.19 µg/L / PNECSTP,0.0006
same,"Risk quotient (PNECEC10), Average initial EMA EU PEC",[4]; STP removal 0%,0.516
same,"Risk quotient (PNECEC10), Average refined PEC per country",[4]; STP removal 12%,0.141
same,"Risk quotient (PNECEC10), Guadalquivir catchment low flow 99th percentile ePiE PEC",[4]; STP removal 12%,21.41
same,"Risk quotient (PNECEC10), Guadalquivir catchment low flow median ePiE PEC",[4]; STP removal 12%,<0.002
same,"Risk quotient (PNECEC10), Guadalquivir catchment mean flow 1st percentile ePiE PEC",[4]; STP removal 12%,<0.002
same,"Risk quotient (PNECEC10), Guadalquivir catchment mean flow 99th percentile ePiE PEC",[4]; STP removal 12%,9.474
same,"Risk quotient (PNECEC10), Guadalquivir catchment mean flow median ePiE PEC",[4]; STP removal 12%,<0.002
same,"Risk quotient (PNECEC10), Highest refined PEC per country",[4]; STP removal 12%,0.917
same,"Risk quotient (PNECEC10), Lowest refined PEC per country",[4]; STP removal 12%,0.003
same,"Risk quotient (PNECEC10), Median refined PEC per country",[4]; STP removal 12%,0.100
same,"Risk quotient (PNECEC10), Ouse catchment low flow 99th percentile ePiE PEC",[4]; STP removal 12%,4.967
same,"Risk quotient (PNECEC10), Ouse catchment low flow median ePiE PEC",[4]; STP removal 12%,0.336
same,"Risk quotient (PNECEC10), Ouse catchment mean flow 1st percentile ePiE PEC",[4]; STP removal 12%,0.002
same,"Risk quotient (PNECEC10), Ouse catchment mean flow 99th percentile ePiE PEC",[4]; STP removal 12%,1.226
same,"Risk quotient (PNECEC10), Ouse catchment mean flow median ePiE PEC",[4]; STP removal 12%,0.083
same,"Risk quotient (PNECEC10), Rhine catchment low flow 99th percentile ePiE PEC",[4]; STP removal 12%,4.597
same,"Risk quotient (PNECEC10), Rhine catchment low flow median ePiE PEC",[4]; STP removal 12%,0.036
same,"Risk quotient (PNECEC10), Rhine catchment mean flow 1st percentile ePiE PEC",[4]; STP removal 12%,<0.002
same,"Risk quotient (PNECEC10), Rhine catchment mean flow 99th percentile ePiE PEC",[4]; STP removal 12%,1.157
same,"Risk quotient (PNECEC10), Turia catchment low flow median ePiE PEC",[4]; STP removal 12%,0.300
same,"Risk quotient (PNECEC10), Turia catchment mean flow 1st percentile ePiE PEC",[4]; STP removal 12%,<0.002
same,"Risk quotient (PNECEC10), Turia catchment mean flow 99th percentile ePiE PEC",[4]; STP removal 12%,0.955
same,"Risk quotient (PNECEC10), Turia catchment mean flow median ePiE PEC",[4]; STP removal 12%,0.048
same,"Risk quotient (PNECEC10), Average refined PEC per country",[4]; STP removal 43.6%,0.100
same,"Risk quotient (PNECEC10), Highest refined PEC per country",[4]; STP removal 43.6%,0.660
same,"Risk quotient (PNECEC10), Lowest refined PEC per country",[4]; STP removal 43.6%,0.002
same,"Risk quotient (PNECEC10), Median refined PEC per country",[4]; STP removal 43.6%,0.072
same,"Risk quotient (PNECEC10), Average refined PEC per country",[4]; STP removal 73.1%,0.064
same,"Risk quotient (PNECEC10), Highest refined PEC per country",[4]; STP removal 73.1%,0.422
same,"Risk quotient (PNECEC10), Lowest refined PEC per country",[4]; STP removal 73.1%,<0.002
same,"Risk quotient (PNECEC10), Median refined PEC per country",[4]; STP removal 73.1%,0.047
same,risk quotient for the PNECNOEC,[4]; initial use‐based Europe‐wide PEC,2.27
same,"Risk quotient (PNECEC10), Maximum MEC",[4]; surface water MECs,1.131
same,"Risk quotient (PNECEC10), Median MEC",[4]; surface water MECs,~0.003
same,48‐h NOEC,daphnid,440 mg/L
same,hydrolytic degradation constant,[5],0.0002 min^–1
same,16‐h LC50,Artemia salina,98.4 mg MPA/L
same,"concentrations causing proliferation, cellular and developmental toxicity",[6],≥ 31 ng/mL
